Results from ChEMBL document CHEMBL4334438, “Discovery of novel glycogen synthase kinase-3α inhibitors: Structure-based virtual screening, preliminary SAR and biological evaluation for treatment of acute myeloid leukemia” (Eur J Med Chem, 2019).

Experiments:
[1] = molecular target: Casein kinase I isoform delta (Homo sapiens) (UniProt P48730); experiment: Inhibition of recombinant human CK1delta (1 to 294 residues) assessed as residual activity at 1 uM using KRRRALS(p)VASLPGL as substrate incubated for 40 mins in presence of [gamma-33ATP] by scintillation counting based radiometry assay relative to control
Casein kinase I isoform delta (Homo sapiens), sequence (P48730 whole entry, looked up, the tested form may be a part, canonical isoform): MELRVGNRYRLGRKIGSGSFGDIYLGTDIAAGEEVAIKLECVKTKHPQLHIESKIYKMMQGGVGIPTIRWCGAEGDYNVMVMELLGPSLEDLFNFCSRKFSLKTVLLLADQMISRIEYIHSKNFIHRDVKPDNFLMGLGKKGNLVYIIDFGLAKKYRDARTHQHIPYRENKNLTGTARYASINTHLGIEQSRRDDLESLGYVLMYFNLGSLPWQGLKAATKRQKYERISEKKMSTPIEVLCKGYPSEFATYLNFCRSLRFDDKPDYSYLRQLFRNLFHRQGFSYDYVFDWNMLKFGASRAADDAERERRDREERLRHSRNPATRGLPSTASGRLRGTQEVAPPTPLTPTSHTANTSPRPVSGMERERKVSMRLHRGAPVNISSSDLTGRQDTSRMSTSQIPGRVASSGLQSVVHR

[2] = tested on: Receptor tyrosine-protein kinase erbB-2 (Homo sapiens), P04626 [G778D]; experiment: Inhibition of recombinant human ERBB2 G778D mutant (676 to end residues) assessed as residual activity at 1 uM using poly(Glu, Tyr) 4:1 as substrate at 40 mins in presence of [gamma-33ATP] by scintillation counting based radiometry assay relative to control
[3] = molecular target: Mitogen-activated protein kinase kinase kinase 5 (Homo sapiens) (UniProt Q99683); experiment: Inhibition of recombinant human ASK1 (649 to 946 residues) assessed as residual activity at 1 uM using myelin basic protein as substrate incubated for 40 mins in presence of [gamma-33ATP] by scintillation counting based radiometry assay relative to control
[4] = molecular target: Protein kinase C epsilon type (Homo sapiens) (UniProt Q02156); experiment: Inhibition of recombinant human PKCepsilon (2 to end residues) assessed as residual activity at 1 uM using ERMRPRKRQGSVRRRV as substrate measured after 40 mins in presence of [gamma33P]ATP by scintillation counting method relative to control
Protein kinase C epsilon type (Homo sapiens), sequence (Q02156 whole entry): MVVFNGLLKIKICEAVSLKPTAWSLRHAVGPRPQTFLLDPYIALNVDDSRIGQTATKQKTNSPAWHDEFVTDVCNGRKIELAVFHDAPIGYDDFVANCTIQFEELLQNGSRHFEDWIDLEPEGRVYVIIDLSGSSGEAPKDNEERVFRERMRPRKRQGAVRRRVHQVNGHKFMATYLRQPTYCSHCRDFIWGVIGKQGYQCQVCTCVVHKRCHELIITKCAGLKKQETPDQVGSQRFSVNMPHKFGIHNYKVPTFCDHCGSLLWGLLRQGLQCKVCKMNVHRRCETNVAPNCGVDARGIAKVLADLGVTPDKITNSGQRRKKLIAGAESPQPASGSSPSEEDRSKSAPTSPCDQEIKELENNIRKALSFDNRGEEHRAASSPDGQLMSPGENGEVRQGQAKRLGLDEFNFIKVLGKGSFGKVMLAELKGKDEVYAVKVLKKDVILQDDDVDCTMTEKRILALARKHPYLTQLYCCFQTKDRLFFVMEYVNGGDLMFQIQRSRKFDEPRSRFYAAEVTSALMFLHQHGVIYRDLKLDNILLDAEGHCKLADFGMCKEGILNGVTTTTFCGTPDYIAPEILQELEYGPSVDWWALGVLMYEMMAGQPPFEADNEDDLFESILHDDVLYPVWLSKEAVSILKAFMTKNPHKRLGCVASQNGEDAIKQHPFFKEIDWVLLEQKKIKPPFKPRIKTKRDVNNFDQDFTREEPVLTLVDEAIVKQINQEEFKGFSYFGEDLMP

[5] = molecular target: Dual specificity mitogen-activated protein kinase kinase 1 (Homo sapiens) (UniProt Q02750); experiment: Inhibition of recombinant human MEK1 assessed as residual activity at 1 uM using inactive MAPK2 as substrate incubated for 40 mins in presence of [gamma-33ATP by scintillation counting based radiometry assay relative to control
Dual specificity mitogen-activated protein kinase kinase 1 (Homo sapiens), sequence (Q02750 whole entry): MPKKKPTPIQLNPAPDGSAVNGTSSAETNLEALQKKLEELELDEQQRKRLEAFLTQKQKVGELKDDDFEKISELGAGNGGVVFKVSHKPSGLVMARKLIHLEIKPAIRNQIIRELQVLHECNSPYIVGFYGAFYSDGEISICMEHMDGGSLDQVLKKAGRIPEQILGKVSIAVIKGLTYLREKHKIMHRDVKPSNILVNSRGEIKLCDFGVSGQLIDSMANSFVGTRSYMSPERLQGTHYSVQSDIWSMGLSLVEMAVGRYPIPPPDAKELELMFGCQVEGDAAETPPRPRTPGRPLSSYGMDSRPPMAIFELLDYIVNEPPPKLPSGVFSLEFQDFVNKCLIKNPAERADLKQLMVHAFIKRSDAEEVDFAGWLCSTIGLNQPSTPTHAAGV

[6] = molecular target: Mitogen-activated protein kinase kinase kinase 20 (Homo sapiens) (UniProt Q9NYL2); experiment: Inhibition of recombinant full-length human ZAK at 1 uM assessed as residual activity at 1 uM using MBP as substrate measured after 40 mins in presence of [gamma33P]ATP by scintillation counting method relative to control
Mitogen-activated protein kinase kinase kinase 20 (Homo sapiens), sequence (Q9NYL2 2-800 limits assumed): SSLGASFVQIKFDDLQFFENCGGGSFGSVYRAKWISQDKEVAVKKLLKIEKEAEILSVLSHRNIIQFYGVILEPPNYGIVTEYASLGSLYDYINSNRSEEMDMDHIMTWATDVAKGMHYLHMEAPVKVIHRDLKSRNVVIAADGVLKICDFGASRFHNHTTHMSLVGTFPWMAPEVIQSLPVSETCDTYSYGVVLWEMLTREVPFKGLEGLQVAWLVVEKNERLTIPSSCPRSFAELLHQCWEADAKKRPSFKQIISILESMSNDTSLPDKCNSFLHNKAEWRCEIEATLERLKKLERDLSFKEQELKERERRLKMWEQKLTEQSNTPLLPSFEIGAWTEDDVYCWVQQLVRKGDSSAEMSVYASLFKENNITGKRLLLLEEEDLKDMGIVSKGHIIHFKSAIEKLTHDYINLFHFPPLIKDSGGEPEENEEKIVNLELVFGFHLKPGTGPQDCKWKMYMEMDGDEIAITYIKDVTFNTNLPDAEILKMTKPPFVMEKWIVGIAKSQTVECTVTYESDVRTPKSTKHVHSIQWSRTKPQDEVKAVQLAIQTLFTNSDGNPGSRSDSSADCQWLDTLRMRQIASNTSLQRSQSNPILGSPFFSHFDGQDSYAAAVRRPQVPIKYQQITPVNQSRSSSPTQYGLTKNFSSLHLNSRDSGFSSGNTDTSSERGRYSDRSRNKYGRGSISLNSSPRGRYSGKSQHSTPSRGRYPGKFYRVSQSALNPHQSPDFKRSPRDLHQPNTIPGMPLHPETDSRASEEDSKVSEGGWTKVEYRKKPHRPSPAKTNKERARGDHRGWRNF

[7] = molecular target: Misshapen-like kinase 1 (Homo sapiens) (UniProt Q8N4C8); experiment: Inhibition of recombinant human MINK (1 to 310 residues) assessed as residual activity at 1 uM using myelin basic protein as substrate measured after 40 mins in presence of [gamma33P]ATP by scintillation counting method
[8] = tested on: Hepatocyte growth factor receptor (Homo sapiens), P08581 [Y1230C]; experiment: Inhibition of recombinant human MET A1209G/V1290L/Y1248C mutant (974 to end residues) assessed as residual activity at 1 uM using KKKGQEEEYVFIE as substrate incubated for 40 mins in presence of [gamma-33ATP by scintillation counting based radiometry assay relative to control
[9] = molecular target: Interferon-induced, double-stranded RNA-activated protein kinase (Homo sapiens) (UniProt P19525); experiment: Inhibition of recombinant human PKR (252 to end residues) assessed as residual activity at 1 uM using RSRSRSRSRSRSRSR as substrate measured after 40 mins in presence of [gamma33P]ATP by scintillation counting method relative to control
[10] = molecular target: cAMP-dependent protein kinase catalytic subunit PRKX (Homo sapiens) (UniProt P51817); experiment: Inhibition of recombinant human full length PrKX assessed as residual activity at 1 uM using RRRLSFAEPG as substrate measured after 40 mins in presence of [gamma33P]ATP by scintillation counting method relative to control
cAMP-dependent protein kinase catalytic subunit PRKX (Homo sapiens), sequence (P51817 whole entry): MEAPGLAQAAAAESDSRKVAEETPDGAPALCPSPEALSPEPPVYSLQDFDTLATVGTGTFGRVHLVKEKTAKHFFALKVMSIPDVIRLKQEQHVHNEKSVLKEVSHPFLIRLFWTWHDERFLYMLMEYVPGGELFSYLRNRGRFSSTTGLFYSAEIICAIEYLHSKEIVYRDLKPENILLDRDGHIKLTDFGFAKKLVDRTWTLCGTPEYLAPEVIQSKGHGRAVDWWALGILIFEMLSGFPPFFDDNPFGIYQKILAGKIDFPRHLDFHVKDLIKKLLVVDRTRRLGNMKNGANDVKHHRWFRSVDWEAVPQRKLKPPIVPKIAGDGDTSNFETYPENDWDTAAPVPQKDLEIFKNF

Homo sapiens = organism: Homo sapiens; experiment: Inhibition of recombinant full length human Aurora A I31F mutant assessed as residual activity at 1 uM using LRRASLG as substrate incubated for 40 mins in presence of [gamma-33ATP] by scintillation counting based radiometry assay relative to control
[11] = tested on: Hepatocyte growth factor receptor (Homo sapiens), P08581 [M1250T]; experiment: Inhibition of recombinant human MET A1209G/V1290L/M1268T mutant (974 to end residues) assessed as residual activity at 1 uM using KKKGQEEEYVFIE as substrate incubated for 40 mins in presence of [gamma-33ATP by scintillation counting based radiometry assay relative to control
[12] = molecular target: Bone morphogenetic protein receptor type-2 (Homo sapiens) (UniProt Q13873); experiment: Inhibition of recombinant human BMPR2 (172 to 734 residues) assessed as residual activity at 1 uM using myelin basic protein as substrate incubated for 120 mins in presence of [gamma-33ATP] by scintillation counting based radiometry assay relative to control
[13] = molecular target: Wee1-like protein kinase (Homo sapiens) (UniProt P30291); experiment: Inhibition of human Wee1 (214 to end residues) assessed as residual activity at 1 uM using LSNLYHQGKFLQTFCGSPLYRRR as substrate measured after 40 mins in presence of [gamma33P]ATP by scintillation counting method relative to control
[14] = molecular target: Platelet-derived growth factor receptor beta (Homo sapiens) (UniProt P09619); experiment: Inhibition of human PDGFRbeta (557 to end residues) assessed as residual activity at 1 uM using poly(Glu, Tyr) 4:1 as substrate measured after 40 mins in presence of [gamma33P]ATP by scintillation counting method relative to control
Platelet-derived growth factor receptor beta (Homo sapiens), sequence (P09619 whole entry): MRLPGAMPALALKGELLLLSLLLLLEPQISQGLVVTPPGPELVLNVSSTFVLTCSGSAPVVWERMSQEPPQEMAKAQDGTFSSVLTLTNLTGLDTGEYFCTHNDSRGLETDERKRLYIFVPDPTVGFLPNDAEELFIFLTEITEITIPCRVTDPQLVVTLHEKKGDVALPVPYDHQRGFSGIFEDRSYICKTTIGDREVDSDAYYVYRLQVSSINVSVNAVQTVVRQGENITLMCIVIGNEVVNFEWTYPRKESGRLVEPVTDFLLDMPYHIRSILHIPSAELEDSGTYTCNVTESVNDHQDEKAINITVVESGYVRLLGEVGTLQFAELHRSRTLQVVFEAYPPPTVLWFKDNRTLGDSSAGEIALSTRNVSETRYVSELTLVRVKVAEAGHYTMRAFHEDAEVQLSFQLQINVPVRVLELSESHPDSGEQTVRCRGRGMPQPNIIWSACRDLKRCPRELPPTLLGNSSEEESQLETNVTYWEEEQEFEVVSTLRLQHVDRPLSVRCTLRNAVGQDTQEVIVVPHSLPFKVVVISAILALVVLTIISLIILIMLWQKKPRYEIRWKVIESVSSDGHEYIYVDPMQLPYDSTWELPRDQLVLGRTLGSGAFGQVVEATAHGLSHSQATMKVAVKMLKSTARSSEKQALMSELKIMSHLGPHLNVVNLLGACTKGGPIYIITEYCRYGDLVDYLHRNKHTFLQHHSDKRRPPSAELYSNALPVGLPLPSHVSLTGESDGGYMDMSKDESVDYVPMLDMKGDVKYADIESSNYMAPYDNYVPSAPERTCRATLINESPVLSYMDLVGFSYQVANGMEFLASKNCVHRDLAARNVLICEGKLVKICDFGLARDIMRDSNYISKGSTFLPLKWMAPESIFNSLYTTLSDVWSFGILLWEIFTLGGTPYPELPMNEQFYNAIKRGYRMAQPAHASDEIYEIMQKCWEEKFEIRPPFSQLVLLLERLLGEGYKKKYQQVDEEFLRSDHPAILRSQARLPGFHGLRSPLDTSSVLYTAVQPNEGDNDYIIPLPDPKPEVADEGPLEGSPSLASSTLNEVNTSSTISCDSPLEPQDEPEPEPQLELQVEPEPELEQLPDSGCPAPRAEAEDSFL

[15] = molecular target: Tyrosine-protein kinase Lck (Homo sapiens) (UniProt P06239); experiment: Inhibition of recombinant full length human LCK activated assessed as residual activity at 1 uM using KVEKIGEGTYGVVYK as substrate after 40 mins in presence of [gamma-33ATP] by scintillation counting based radiometry assay relative to control
Tyrosine-protein kinase Lck (Homo sapiens), sequence (P06239 2-509 limits assumed): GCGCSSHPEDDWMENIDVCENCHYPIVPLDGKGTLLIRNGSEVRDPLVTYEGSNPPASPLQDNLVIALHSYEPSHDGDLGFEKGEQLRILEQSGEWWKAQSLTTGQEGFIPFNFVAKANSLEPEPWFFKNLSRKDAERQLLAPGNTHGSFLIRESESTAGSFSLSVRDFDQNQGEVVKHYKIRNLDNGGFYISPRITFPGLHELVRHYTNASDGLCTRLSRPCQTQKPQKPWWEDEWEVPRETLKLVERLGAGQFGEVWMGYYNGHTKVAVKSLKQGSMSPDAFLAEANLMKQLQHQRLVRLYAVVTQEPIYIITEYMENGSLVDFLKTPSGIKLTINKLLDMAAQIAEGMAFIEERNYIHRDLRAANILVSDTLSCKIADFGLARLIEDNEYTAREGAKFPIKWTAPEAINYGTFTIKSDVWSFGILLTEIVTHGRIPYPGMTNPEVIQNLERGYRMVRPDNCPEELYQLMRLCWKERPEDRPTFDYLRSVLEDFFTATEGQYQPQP

[16] = molecular target: CDK6/cyclin D3 (Homo sapiens) (UniProt P30281+Q00534); experiment: Inhibition of recombinant full length human CDK6/cyclinD3 assessed as residual activity at 1 uM using histone H1 as substrate incubated for 40 mins in presence of [gamma-33ATP] by scintillation counting based radiometry assay relative to control; type: protein-complex assay
[17] = tested on: Proto-oncogene tyrosine-protein kinase Src (Homo sapiens), P12931 [T341M]; experiment: Inhibition of recombinant full-length human Src T341M mutant at 1 uM assessed as residual activity at 1 uM using GGEEEEYFELVKKKK as substrate measured after 40 mins in presence of [gamma33P]ATP by scintillation counting method relative to control
[18] = molecular target: Serine/threonine-protein kinase PLK2 (Homo sapiens) (UniProt Q9NYY3); experiment: Inhibition of human Snk (65 to 409 residues) assessed as residual activity at 1 uM using casein as substrate measured after 40 mins in presence of [gamma33P]ATP by scintillation counting method relative to control
Serine/threonine-protein kinase PLK2 (Homo sapiens), sequence (Q9NYY3 whole entry, looked up, the tested form may be a part): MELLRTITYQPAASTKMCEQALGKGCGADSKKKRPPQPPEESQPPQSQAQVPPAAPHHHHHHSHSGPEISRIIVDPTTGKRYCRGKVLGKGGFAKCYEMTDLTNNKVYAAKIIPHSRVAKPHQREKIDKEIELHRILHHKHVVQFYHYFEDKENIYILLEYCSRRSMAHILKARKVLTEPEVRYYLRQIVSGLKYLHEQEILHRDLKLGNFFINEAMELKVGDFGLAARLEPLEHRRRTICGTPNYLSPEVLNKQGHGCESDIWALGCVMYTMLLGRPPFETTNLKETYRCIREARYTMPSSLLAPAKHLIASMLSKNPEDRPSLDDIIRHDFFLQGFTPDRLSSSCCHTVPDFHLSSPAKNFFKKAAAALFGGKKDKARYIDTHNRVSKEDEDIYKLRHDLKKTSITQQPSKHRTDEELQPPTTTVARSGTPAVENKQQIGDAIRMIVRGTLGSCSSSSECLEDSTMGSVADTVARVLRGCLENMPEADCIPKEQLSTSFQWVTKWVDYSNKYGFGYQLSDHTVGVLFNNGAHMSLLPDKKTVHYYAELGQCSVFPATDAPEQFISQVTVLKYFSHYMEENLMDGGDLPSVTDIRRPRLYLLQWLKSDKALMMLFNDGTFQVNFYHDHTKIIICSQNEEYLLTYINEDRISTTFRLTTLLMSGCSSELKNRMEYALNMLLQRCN

[19] = molecular target: Mitogen-activated protein kinase kinase kinase 9 (Homo sapiens) (UniProt P80192); experiment: Inhibition of recombinant human MLK1 (134 to 414 residues) assessed as residual activity at 1 uM using casein as substrate incubated for 40 mins in presence of [gamma-33ATP by scintillation counting based radiometry assay relative to control
[20] = tested on: Tyrosine-protein kinase ABL1 (Homo sapiens), P00519 [H396P]; experiment: Inhibition of human ABL1 H396P mutant (27 to end residues) assessed as residual activity at 1 uM using EAIYAAPFAKKK as substrate incubated for 40 mins in presence of [gamma-33ATP] by scintillation counting based radiometry assay relative to control

SMILES: N=C1NC(=O)/C(=C\c2ccc(-c3cccc([N+](=O)[O-])c3)o2)S1
- Activity [1]: 101%
- Activity [2]: 103%
- Activity [3]: 101%
- Activity [4]: 106%
- Activity [5]: 88%
- Activity [6]: 114%
- Activity [7]: 85%
- Activity [8]: 98%
- Activity [9]: 98%
- Activity [10]: 96%
- Activity (Homo sapiens): 101%
- Activity [11]: 82%
- Activity [12]: 91%
- Activity [13]: 103%
- Activity [14]: 103%
- Activity [15]: 93%
- Activity [16]: 92%
- Activity [17]: 97%
- Activity [18]: 92%
- Activity [19]: 98%
- Activity [20]: 80%

SMILES: C=CCOC(=O)c1cc(-c2ccc(/C=C3/NC(=S)NC3=O)o2)ccc1Cl
- Activity [1]: 94%
- Activity [2]: 118%
- Activity [3]: 102%
- Activity [4]: 99%
- Activity [5]: 96%
- Activity [6]: 115%
- Activity [7]: 92%
- Activity [8]: 114%
- Activity [9]: 98%
- Activity [10]: 107%
- Activity (Homo sapiens): 114%
- Activity [11]: 101%
- Activity [12]: 99%
- Activity [13]: 106%
- Activity [14]: 108%
- Activity [15]: 76%
- Activity [16]: 84%
- Activity [17]: 92%
- Activity [18]: 91%
- Activity [19]: 99%
- Activity [20]: 110%
